# According to patent US20090054375A1, “Compositions, Systems, and/or Methods Involving Chlorine Dioxide” (priority 2007, published 2009):
# Experiment: Enhanced solubility of beta-cyclodextrin in water containing ClO2 (slurry test)
# Format: physicochemical
# Settings: 100 g slurries of 5% beta-cyclodextrin (w/w) in 8000 ppm ClO2 vs ultrapure water, mixed at 200 rpm for 3 days, dried 2 days
structure (smiles),measurement,value
OC[C@H]1O[C@@H]2O[C@H]3[C@H](O)[C@@H](O)[C@@H](O[C@H]4[C@H](O)[C@@H](O)[C@@H](O[C@H]5[C@H](O)[C@@H](O)[C@@H](O[C@H]6[C@H](O)[C@@H](O)[C@@H](O[C@H]7[C@H](O)[C@@H](O)[C@@H](O[C@H]8[C@H](O)[C@@H](O)[C@@H](O[C@H]1[C@H](O)[C@H]2O)O[C@@H]8CO)O[C@@H]7CO)O[C@@H]6CO)O[C@@H]5CO)O[C@@H]4CO)O[C@@H]3CO [beta-cyclodextrin],"weight of dried undissolved beta-cyclodextrin from the ClO2 containing slurry, less than the control slurry",0.32 g
